Measurements as given in ChEMBL document CHEMBL3352080, “Kojic acid derived hydroxypyridinone-chloroquine hybrids: synthesis, crystal structure, antiplasmodial activity and β-haematin inhibition” (Bioorg Med Chem Lett, 2014).

How the values were obtained:
[1] = Inhibition of beta-haematin complex formation after 60 mins by spectrophotometry relative to chloroquine; format: physicochemical
Plasmodium falciparum [2] = experiment: Antiplasmodial activity against Plasmodium falciparum K1 infected in erythrocytes assessed as [3H]hypoxanthine incorporation after 24 hrs by microbeta scintillation counting analysis; format: functional, organism-based
Plasmodium falciparum [3] = experiment: Antiplasmodial activity against Plasmodium falciparum 3D7 infected in erythrocytes assessed as [3H]hypoxanthine incorporation after 24 hrs by microbeta scintillation counting analysis; format: functional, organism-based
Plasmodium falciparum [4] = experiment: Resistance index, ratio of IC50 for Plasmodium falciparum K1 to IC50 for Plasmodium falciparum 3D7; format: functional

**Q.** Which IC50 [1] does the source give for `Cn1cc(O)c(=O)cc1CNCCCNc1ccnc2cc(Cl)ccc12` here?
**A.** 6.12 equiv

**Q.** What about the IC50 (Plasmodium falciparum [2]) of the same molecule?
**A.** 360 nM

**Q.** And the IC50 (Plasmodium falciparum [3])?
**A.** 120 nM

**Q.** What about the Ratio IC50 (Plasmodium falciparum [4]) of the same molecule?
**A.** 2.2

**Q.** For `CN(CCCNc1ccnc2cc(Cl)ccc12)Cc1cc(=O)c(O)cn1C`, which IC50 [1] is on record?
**A.** 1.95 equiv

**Q.** What about the IC50 (Plasmodium falciparum [2]) of the same molecule?
**A.** 270 nM

**Q.** And the IC50 (Plasmodium falciparum [3])?
**A.** 40 nM

**Q.** And the Ratio IC50 (Plasmodium falciparum [4])?
**A.** 1

**Q.** With `Cn1cc(O)c(=O)cc1CNCCCCNc1ccnc2cc(Cl)ccc12` as the molecule, how does the IC50 (Plasmodium falciparum [2]) read?
**A.** 720 nM

**Q.** What about the IC50 (Plasmodium falciparum [3]) of the same molecule?
**A.** 670 nM

**Q.** What about the Ratio IC50 (Plasmodium falciparum [4]) of the same molecule?
**A.** 0.1

**Q.** Which IC50 [1] does the source give for `Cn1cc(O)c(=O)cc1CNCCCCCCNc1ccnc2cc(Cl)ccc12` here?
**A.** 0.7 equiv

**Q.** And the IC50 (Plasmodium falciparum [2])?
**A.** 970 nM

**Q.** And the IC50 (Plasmodium falciparum [3])?
**A.** 150 nM

**Q.** What about the Ratio IC50 (Plasmodium falciparum [4]) of the same molecule?
**A.** 1.7

**Q.** Which IC50 [1] does the source give for `O=c1cc(CNCCNc2ccnc3cc(Cl)ccc23)n(C2CC2)cc1O` here?
**A.** 1.41 equiv

**Q.** And the IC50 (Plasmodium falciparum [2])?
**A.** 460 nM

**Q.** And the IC50 (Plasmodium falciparum [3])?
**A.** 300 nM

**Q.** What about the Ratio IC50 (Plasmodium falciparum [4]) of the same molecule?
**A.** 1.6

**Q.** What does the source list for `O=c1cc(CNCCCNc2ccnc3cc(Cl)ccc23)n(C2CC2)cc1O`?
**A.** IC50 [1]: 2.62 equiv; IC50 (Plasmodium falciparum [2]): 850 nM; IC50 (Plasmodium falciparum [3]): 160 nM; Ratio IC50 (Plasmodium falciparum [4]): 3.6

**Q.** Which results are given for `CN(CCCNc1ccnc2cc(Cl)ccc12)Cc1cc(=O)c(O)cn1C1CC1`?
**A.** IC50 [1]: 5.24 equiv; IC50 (Plasmodium falciparum [2]): 360 nM; IC50 (Plasmodium falciparum [3]): 170 nM; Ratio IC50 (Plasmodium falciparum [4]): 1.5

**Q.** Which IC50 [1] does the source give for `O=c1cc(CNCCCCNc2ccnc3cc(Cl)ccc23)n(C2CC2)cc1O` here?
**A.** 2.57 equiv

**Q.** What about the IC50 (Plasmodium falciparum [2]) of the same molecule?
**A.** 30 nM

**Q.** And the IC50 (Plasmodium falciparum [3])?
**A.** 4 nM

**Q.** What about the Ratio IC50 (Plasmodium falciparum [4]) of the same molecule?
**A.** 2.1

**Q.** With `O=c1cc(CNCCCCCCNc2ccnc3cc(Cl)ccc23)n(C2CC2)cc1O` as the molecule, how does the IC50 [1] read?
**A.** 1.39 equiv

**Q.** And the IC50 (Plasmodium falciparum [2])?
**A.** 80 nM

**Q.** What about the IC50 (Plasmodium falciparum [3]) of the same molecule?
**A.** 30 nM

**Q.** What about the “Ratio IC50” value (Plasmodium falciparum [4]) of the same molecule?
**A.** 2.7

**Q.** What does the source list for `Cn1cc(OCc2ccccc2)c(=O)cc1CNCCNc1ccnc2cc(Cl)ccc12`?
**A.** IC50 [1]: 1.27 equiv; IC50 (Plasmodium falciparum [2]): 2560 nM; IC50 (Plasmodium falciparum [3]): 540 nM; Ratio IC50 (Plasmodium falciparum [4]): 4.7

**Q.** With `Cn1cc(OCc2ccccc2)c(=O)cc1CNCCCNc1ccnc2cc(Cl)ccc12` as the molecule, how does the IC50 [1] read?
**A.** 1.3 equiv

**Q.** And the IC50 (Plasmodium falciparum [2])?
**A.** 1750 nM

**Q.** What about the IC50 (Plasmodium falciparum [3]) of the same molecule?
**A.** 300 nM

**Q.** What about the “Ratio IC50” value (Plasmodium falciparum [4]) of the same molecule?
**A.** 3

**Q.** Which results are given for `CN(CCCNc1ccnc2cc(Cl)ccc12)Cc1cc(=O)c(OCc2ccccc2)cn1C`?
**A.** IC50 [1]: 1.98 equiv; IC50 (Plasmodium falciparum [2]): 2080 nM; IC50 (Plasmodium falciparum [3]): 390 nM; Ratio IC50 (Plasmodium falciparum [4]): 6.9

**Q.** For `Cn1cc(OCc2ccccc2)c(=O)cc1CNCCCCNc1ccnc2cc(Cl)ccc12`, which IC50 [1] is on record?
**A.** 0.42 equiv

**Q.** What about the IC50 (Plasmodium falciparum [2]) of the same molecule?
**A.** 270 nM

**Q.** What about the IC50 (Plasmodium falciparum [3]) of the same molecule?
**A.** 240 nM

**Q.** What about the “Ratio IC50” value (Plasmodium falciparum [4]) of the same molecule?
**A.** 2.2

**Q.** For `Cn1cc(OCc2ccccc2)c(=O)cc1CNCCCCCCNc1ccnc2cc(Cl)ccc12`, which IC50 [1] is on record?
**A.** 0.51 equiv

**Q.** And the IC50 (Plasmodium falciparum [2])?
**A.** 150 nM

**Q.** What about the IC50 (Plasmodium falciparum [3]) of the same molecule?
**A.** 40 nM

**Q.** And the “Ratio IC50” value (Plasmodium falciparum [4])?
**A.** 0.4

**Q.** What does the source list for `O=c1cc(CNCCNc2ccnc3cc(Cl)ccc23)n(C2CC2)cc1OCc1ccccc1`?
**A.** IC50 [1]: 0.56 equiv; IC50 (Plasmodium falciparum [2]): 40 nM; IC50 (Plasmodium falciparum [3]): 210 nM; Ratio IC50 (Plasmodium falciparum [4]): 1

**Q.** With `O=c1cc(CNCCCNc2ccnc3cc(Cl)ccc23)n(C2CC2)cc1OCc1ccccc1` as the molecule, how does the IC50 [1] read?
**A.** 0.22 equiv

**Q.** And the IC50 (Plasmodium falciparum [2])?
**A.** 1710 nM

**Q.** What about the IC50 (Plasmodium falciparum [3]) of the same molecule?
**A.** 190 nM

**Q.** What about the “Ratio IC50” value (Plasmodium falciparum [4]) of the same molecule?
**A.** 7.1

**Q.** What does the source list for `CN(CCCNc1ccnc2cc(Cl)ccc12)Cc1cc(=O)c(OCc2ccccc2)cn1C1CC1`?
**A.** IC50 (Plasmodium falciparum [2]): 70 nM; IC50 (Plasmodium falciparum [3]): 150 nM; Ratio IC50 (Plasmodium falciparum [4]): 0.1

**Q.** With `O=c1cc(CNCCCCNc2ccnc3cc(Cl)ccc23)n(C2CC2)cc1OCc1ccccc1` as the molecule, how does the IC50 [1] read?
**A.** 0.82 equiv

**Q.** And the IC50 (Plasmodium falciparum [2])?
**A.** 320 nM

**Q.** What about the IC50 (Plasmodium falciparum [3]) of the same molecule?
**A.** 160 nM

**Q.** And the Ratio IC50 (Plasmodium falciparum [4])?
**A.** 5.3

**Q.** Which IC50 [1] does the source give for `O=c1cc(CNCCCCCCNc2ccnc3cc(Cl)ccc23)n(C2CC2)cc1OCc1ccccc1` here?
**A.** 0.071 equiv

**Q.** What about the IC50 (Plasmodium falciparum [2]) of the same molecule?
**A.** 320 nM

**Q.** What about the IC50 (Plasmodium falciparum [3]) of the same molecule?
**A.** 4 nM

**Q.** What about the Ratio IC50 (Plasmodium falciparum [4]) of the same molecule?
**A.** 7.5

**Q.** Which IC50 [1] does the source give for `Cn1cc(O)c(=O)cc1CNCCNc1ccnc2cc(Cl)ccc12` here?
**A.** 0.63 equiv

**Q.** And the IC50 (Plasmodium falciparum [2])?
**A.** 1450 nM

**Q.** What about the IC50 (Plasmodium falciparum [3]) of the same molecule?
**A.** 580 nM

**Q.** What about the Ratio IC50 (Plasmodium falciparum [4]) of the same molecule?
**A.** 3

**Q.** What does the source list for `C[C@@H]1CC[C@H]2[C@@H](C)C(=O)O[C@@H]3O[C@@]4(C)CC[C@@H]1[C@]32OO4` [ARTEMISININ]?
**A.** IC50 (Plasmodium falciparum [2]): 4 nM; IC50 (Plasmodium falciparum [3]): 9 nM; Ratio IC50 (Plasmodium falciparum [4]): 0.4

**Q.** Which IC50 [1] does the source give for `CCN(CC)CCCC(C)Nc1ccnc2cc(Cl)ccc12` (configuration not stated) [CHLOROQUINE] here?
**A.** 1.9 equiv
